Experimental data from ChEMBL document CHEMBL1629682, “Nitazoxanide inhibits biofilm formation by Staphylococcus epidermidis by blocking accumulation on surfaces” (Antimicrob Agents Chemother, 2010).
Values after ≈ are worked out from the molar mass of the structure shown. Active and inactive are the calls of the source. No cut-off for these calls is given here.

Key:
[1] = Aqueous solubility of the compound; type: physicochemical
[2] = tested on: Staphylococcus epidermidis; assay: (§1) Antimicrobial activity against Staphylococcus epidermidis clinical isolate 5179-R1 derived from PNAG negative, icaA::IS257 mutant 5179 strain produces a proteinaceous biofilm dependent on a truncated 140-kDa isoform of Aap by microdilution method; type: functional, organism-based
[3] = tested on: Staphylococcus epidermidis; assay: Antimicrobial activity against Staphylococcus epidermidis 9142 assessed as growth inhibition at 8 ug/ml by microdilution method; type: functional, organism-based
[4] = tested on: Staphylococcus epidermidis; assay: Antimicrobial activity against biofilm-positive Staphylococcus epidermidis clinical isolate ICS2 assessed as inhibition of biofilm formation after 16 hrs by crystal violet staining; type: functional, organism-based
[5] = tested on: Staphylococcus epidermidis; assay: Antimicrobial activity against Staphylococcus epidermidis 9142 expressing surface protein Aap assessed as inhibition of bacterial growth at 12.5 ug/ml after 16 hrs by spectrophotometry in presence of 10 uM Zn ions; type: functional, organism-based
[6] = tested on: Staphylococcus epidermidis; assay: Antimicrobial activity against Staphylococcus epidermidis CAV1005 under aerobic condition by microdilution method; type: functional, organism-based
[7] = tested on: Staphylococcus epidermidis; assay: Antimicrobial activity against Staphylococcus epidermidis CAV1005 by microdilution method; type: functional
[8] = tested on: Staphylococcus epidermidis; assay: Antimicrobial activity against Staphylococcus epidermidis 9142 expressing surface protein Aap up to 10 hrs by microdilution method in presence of 10 uM Zn ions; type: functional, organism-based
[9] = tested on: Staphylococcus epidermidis; assay: Antimicrobial activity against Staphylococcus epidermidis 9142 expressing surface protein Aap assessed as inhibition of biofilm formation at 12.5 ug/ml by spectrophotometry in presence of EDTA; type: functional, organism-based
[10] = tested on: Staphylococcus epidermidis; assay: Antimicrobial activity against Staphylococcus epidermidis 9142 assessed as inhibition of biofilm formation after 24 hrs by crystal violet staining; type: functional, organism-based
[11] = tested on: Staphylococcus epidermidis; assay: Antimicrobial activity against Staphylococcus epidermidis 9142 assessed as inhibition of bacterial attachment to plastics at 15 ug/ml under static condition for 3 hrs by microscopic analysis in presence of 10 uM Zn ions; type: functional, organism-based
[12] = tested on: Staphylococcus epidermidis; assay: Antimicrobial activity against biofilm-positive Staphylococcus epidermidis clinical isolate ICS5 assessed as inhibition of biofilm formation after 16 hrs by crystal violet staining; type: functional, organism-based
[13] = tested on: Staphylococcus epidermidis; assay: Antimicrobial activity against Staphylococcus epidermidis 9142 expressing surface protein Aap by microdilution method in presence of 10 uM Zn ions; type: functional
[14] = tested on: Staphylococcus epidermidis; assay: Antimicrobial activity against Staphylococcus epidermidis 9142 under microaeration condition at 10 ug/ml by microdilution method; type: functional, organism-based
[15] = tested on: Staphylococcus epidermidis; assay: Antimicrobial activity against Staphylococcus epidermidis 9142 assessed as inhibition of bacterial accumulation on catheters after 24 hrs by catheter adherence model; type: functional, organism-based
[16] = tested on: Staphylococcus epidermidis; assay: Antimicrobial activity against Staphylococcus epidermidis 9142 assessed as inhibition of bacterial primary attachment to plastics at 15 ug/ml under shaking condition for 3 hrs by microscopic analysis; type: functional, organism-based
[17] = tested on: Staphylococcus epidermidis; assay: as §1, with “Aap assessed as inhibition of biofilm formation after 16 hrs” for “Aap”, “crystal violet staining” for “microdilution method”; type: functional, organism-based
[18] = tested on: Staphylococcus epidermidis; assay: Antimicrobial activity against Staphylococcus epidermidis 5179 under aerobic condition by microdilution method; type: functional, organism-based
[19] = tested on: Staphylococcus epidermidis; assay: Antimicrobial activity against Staphylococcus epidermidis 9142 expressing surface protein Aap assessed as inhibition of biofilm formation at 12.5 ug/ml by spectrophotometry in presence of Zn ions; type: functional, organism-based
[20] = tested on: Staphylococcus epidermidis; assay: Antimicrobial activity against Staphylococcus epidermidis 9142 assessed as inhibition of bacterial accumulation on catheters treated for 12 hrs post biofilm formation measured after 24 hrs by crystal voilet staining; type: functional, organism-based
[21] = tested on: Staphylococcus epidermidis; assay: Antimicrobial activity against Staphylococcus epidermidis 9142 by microdilution method; type: functional
[22] = tested on: Staphylococcus epidermidis; assay: Antimicrobial activity against biofilm-positive Staphylococcus epidermidis clinical isolate ICS4 by microdilution method; type: functional, organism-based
[23] = tested on: Staphylococcus epidermidis; assay: Antimicrobial activity against biofilm-positive Staphylococcus epidermidis clinical isolate ICS1 by microdilution method; type: functional, organism-based
[24] = tested on: Staphylococcus epidermidis; assay: Antimicrobial activity against Staphylococcus epidermidis CAV1005 at 25 ug/ml under aerobic condition by microdilution method; type: functional, organism-based
[25] = tested on: Staphylococcus epidermidis; assay: Antimicrobial activity against Staphylococcus epidermidis 9142 assessed as inhibition of bacterial attachment to plastics at 15 ug/ml under static condition for 3 hrs by microscopic analysis; type: functional, organism-based
[26] = tested on: Staphylococcus epidermidis; assay: Antimicrobial activity against biofilm-positive Staphylococcus epidermidis clinical isolate ICS3 by microdilution method; type: functional, organism-based
[27] = tested on: Staphylococcus epidermidis; assay: Antimicrobial activity against biofilm-positive Staphylococcus epidermidis clinical isolate ICS3 assessed as inhibition of biofilm formation after 16 hrs by crystal violet staining; type: functional, organism-based
[28] = tested on: Staphylococcus haemolyticus; assay: Antimicrobial activity against Staphylococcus haemolyticus S33208 assessed as growth inhibition at 16 ug/ml by microdilution method; type: functional, organism-based
[29] = tested on: Staphylococcus epidermidis; assay: Antimicrobial activity against Staphylococcus epidermidis 9142 assessed as inhibition of bacterial primary attachment to plastics during 3 hrs at 15 ug/ml by microscopic analysis; type: functional, organism-based
[30] = tested on: Staphylococcus epidermidis; assay: Antimicrobial activity against Staphylococcus epidermidis CAV1005 under microaeration condition at 10 ug/ml by microdilution method; type: functional, organism-based
[31] = tested on: Staphylococcus epidermidis; assay: Antimicrobial activity against biofilm-positive Staphylococcus epidermidis clinical isolate ICS2 by microdilution method; type: functional, organism-based
[32] = tested on: Staphylococcus epidermidis; assay: Antimicrobial activity against Staphylococcus epidermidis 9142 at 25 ug/ml by microdilution method; type: functional, organism-based
[33] = tested on: Staphylococcus epidermidis; assay: Antimicrobial activity against Staphylococcus epidermidis 5179 by microdilution method; type: functional
[34] = tested on: Staphylococcus epidermidis; assay: Antimicrobial activity against Staphylococcus epidermidis 9142 expressing surface protein Aap assessed as inhibition of bacterial growth at 12.5 ug/ml by spectrophotometry in presence of 10 uM Zn ions; type: functional, organism-based
[35] = tested on: Staphylococcus epidermidis; assay: Antimicrobial activity against biofilm-positive Staphylococcus epidermidis clinical isolate ICS5 by microdilution method; type: functional, organism-based
[36] = tested on: Staphylococcus haemolyticus; assay: Antimicrobial activity against Staphylococcus haemolyticus S33208 assessed as growth inhibition at 8 ug/ml by microdilution method; type: functional, organism-based
[37] = tested on: Staphylococcus epidermidis; assay: Antimicrobial activity against Staphylococcus epidermidis 5179 at 25 ug/ml under aerobic condition by microdilution method; type: functional, organism-based
[38] = tested on: Staphylococcus epidermidis; assay: Antimicrobial activity against Staphylococcus epidermidis 9142 assessed as inhibition of bacterial attachment to plastics at 10 ug/ml under static condition for 3 hrs by microscopic analysis; type: functional, organism-based
[39] = tested on: Staphylococcus epidermidis; assay: Antimicrobial activity against Staphylococcus epidermidis 9142 under aerobic condition by microdilution method; type: functional, organism-based
[40] = tested on: Staphylococcus epidermidis; assay: Antimicrobial activity against Staphylococcus epidermidis 9142 expressing surface protein Aap assessed as inhibition of biofilm formation at 12.5 ug/ml by spectrophotometry in presence of calcium ions; type: functional, organism-based
[41] = tested on: Staphylococcus epidermidis; assay: Antimicrobial activity against biofilm-positive Staphylococcus epidermidis clinical isolate ICS1 assessed as inhibition of biofilm formation after 16 hrs by crystal violet staining; type: functional, organism-based
Staphylococcus hominis = assay: Antimicrobial activity against Staphylococcus hominis F13532 assessed as inhibition of biofilm formation after 24 hrs by microdilution method; type: functional; details: F13532, 24 h
[42] = tested on: Staphylococcus epidermidis; assay: Antimicrobial activity against Staphylococcus epidermidis 9142 at 1 to 5 ug/ml by microplate assay; type: functional, organism-based
[43] = tested on: Staphylococcus epidermidis; assay: Antimicrobial activity against Staphylococcus epidermidis 9142 assessed as growth inhibition at 16 ug/ml by microdilution method; type: functional, organism-based
[44] = tested on: Staphylococcus epidermidis; assay: Antimicrobial activity against Staphylococcus epidermidis 9142 expressing surface protein Aap assessed as inhibition of biofilm formation at 12.5 ug/ml by spectrophotometry in presence of magnesium ions; type: functional, organism-based
[45] = tested on: Staphylococcus haemolyticus; assay: Antimicrobial activity against Staphylococcus haemolyticus S33208 assessed as inhibition of biofilm formation after 24 hrs by crystal violet staining; type: functional, organism-based
[46] = tested on: Staphylococcus epidermidis; assay: Antimicrobial activity against biofilm-positive Staphylococcus epidermidis clinical isolate ICS4 assessed as inhibition of biofilm formation after 16 hrs by crystal violet staining; type: functional, organism-based
[47] = tested on: Staphylococcus epidermidis; assay: Antimicrobial activity against Staphylococcus epidermidis 9142 at 25 ug/ml under aerobic condition by microdilution method; type: functional, organism-based
[48] = tested on: Staphylococcus epidermidis; assay: Antimicrobial activity against Staphylococcus epidermidis 5179 under microaeration condition at 10 ug/ml by microdilution method; type: functional, organism-based
[49] = tested on: Staphylococcus epidermidis; assay: Antimicrobial activity against Staphylococcus epidermidis CAV1005 assessed as inhibition of biofilm formation after 24 hrs by microdilution method; type: functional; details: CAV1005, 24 h
[50] = Plasma protein binding in healthy volunteers at […], po administered as single dose; type: ADME, organism-based; design: route oral; details: human, read-out: PPB (converted)

`Cl.NCCOc1ccccc1C(=O)Nc1ncc([N+](=O)[O-])s1` showed a solubility [1] of 400 µg/mL.
For `CC(=O)Oc1ccccc1C(=O)Nc1ncc([N+](=O)[O-])s1` [NITAZOXANIDE], the IC50 [2] was 1 µg/mL (≈ 3.25 µM), the MIC [2] was 16 µg/mL (≈ 52.1 µM) and the Activity [3] was “Active”. The inhibition [4] was “Active”, the Activity [5] was “inactive” and the Activity [6] was “Dose-dependent effect”. The MIC [7] was 8 µg/mL (≈ 26 µM), the Activity [8] was “Active” and the Activity [9] was “inactive”. The Activity [10] was “Dose-dependent effect”, the Activity [11] was “Active” and the inhibition [12] was “Active”. The MIC [13] was 16 µg/mL, the Activity [14] was “Active” and the Activity [15] was “Dose-dependent effect”. The Activity [16] was “Active”, the inhibition [17] was “Active” and the Activity [18] was “Dose-dependent effect”. For the same molecule, the Activity [19] was “inactive”, the Activity [20] was “inactive” and the MIC [21] was 8 µg/mL (≈ 26 µM). It also gave an IC50 [22] of 1 µg/mL (≈ 3.25 µM), an MIC [22] of 16 µg/mL (≈ 52.1 µM) and an IC50 [23] of 1 µg/mL (≈ 3.25 µM). For the same molecule, the MIC [23] was 16 µg/mL (≈ 52.1 µM), the Activity [24] was “Active” and the Activity [25] was “Active”. The IC50 [26] was 1 µg/mL (≈ 3.25 µM), the MIC [26] was 16 µg/mL (≈ 52.1 µM) and the inhibition [27] was “Active”. The Activity [28] was “Active”, the Activity [29] was “Active” and the Activity [30] was “Active”. For the same molecule, the IC50 [31] was 1 µg/mL (≈ 3.25 µM), the MIC [31] was 16 µg/mL (≈ 52.1 µM) and the Activity [32] was “Active”. The MIC [33] was 8 µg/mL (≈ 26 µM), the Activity [34] was “Active” and the IC50 [35] was 1 µg/mL (≈ 3.25 µM). The MIC [35] was 16 µg/mL (≈ 52.1 µM), the Activity [36] was “Active” and the Activity [37] was “Active”. The Activity [38] was “Active”, the Activity [39] was “Dose-dependent effect” and the Activity [40] was “Active”. For the same molecule, the inhibition [41] was “Active”, the MIC (Staphylococcus hominis) was greater than 32 µg/mL and the Activity [42] was “Active”. For the same molecule, the Activity [43] was “Active”, the Activity [44] was “Active” and the Activity [45] was “Dose-dependent effect”. For the same molecule, the inhibition [46] was “Active”, the Activity [47] was “Active” and the Activity [48] was “Active”. The MIC [49] was greater than 32 µg/mL.
In the case of `O=C(Nc1ncc([N+](=O)[O-])s1)c1ccccc1O` [TIZOXANIDE], the Activity [6] is reported as “Dose-dependent effect”, the MIC [7] is reported as 8 µg/mL (≈ 30.2 µM) and the fraction unbound [50] is reported as 0.025. The Activity [18] was “Dose-dependent effect”, the MIC [21] was 8 µg/mL (≈ 30.2 µM) and the Activity [24] was “Active”. For the same molecule, the MIC [33] was 8 µg/mL (≈ 30.2 µM), the Activity [37] was “Active” and the Activity [39] was “Dose-dependent effect”. The Activity [42] was “Active” and the Activity [47] was “Active”.
